We go through 10 molecules from ChEMBL document CHEMBL5465560, “Selectivity Literature for EUbOPEN Chemogenomic Library” (2024).

Where only a bound is given, the exact number is not on record here.

Test [1] has as its target Protein-tyrosine kinase 6 (Homo sapiens, UniProt Q13882). Description: Selectivity interaction (KinaseProfiler screening (Millipore, enzymatic assay)) EUB0000601a PTK6.
In test [2] the target is Tyrosine-protein kinase JAK2 (Homo sapiens, UniProt O60674). The following applies: at 10 µM.
In test [3] the target is T1, Serine/threonine-protein kinase 17B (Homo sapiens) (UniProt O94768).
T1 sequence (whole entry): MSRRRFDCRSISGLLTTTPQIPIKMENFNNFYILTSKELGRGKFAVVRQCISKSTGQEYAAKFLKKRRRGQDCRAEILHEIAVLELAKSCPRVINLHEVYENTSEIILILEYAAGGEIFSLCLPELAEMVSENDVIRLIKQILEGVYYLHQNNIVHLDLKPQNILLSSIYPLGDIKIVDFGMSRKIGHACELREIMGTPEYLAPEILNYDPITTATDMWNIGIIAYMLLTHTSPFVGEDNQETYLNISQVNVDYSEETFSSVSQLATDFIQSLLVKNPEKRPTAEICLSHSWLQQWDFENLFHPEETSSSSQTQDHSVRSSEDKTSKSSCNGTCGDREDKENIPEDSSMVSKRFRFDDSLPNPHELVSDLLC
Description: Selectivity interaction (KinomeScan (DiscoverX)) EUB0000655a STK17B. The settings on record: at 10 µM.

The target in test [4] is Ribosomal protein S6 kinase alpha-3 (Homo sapiens, UniProt P51812). The test is described as follows: Selectivity interaction (Kinase screening (Nanosyn)) EUB0000604a RPS6KA3.
Test [5] deals with Mitogen-activated protein kinase kinase kinase 4 (Homo sapiens) (UniProt Q9Y6R4). The test is described as follows: Selectivity interaction (KinomeScan (DiscoverX)) EUB0000607a MAP3K4. The following applies: at 10 µM.
For test [6], the target named is Dual specificity tyrosine-phosphorylation-regulated kinase 1A (Homo sapiens, UniProt Q13627). Description: Selectivity interaction (Kinase panel (Invitrogen)) EUB0000639a DYRK1A. The settings on record: at 200 nM.
For test [7], the target named is T2, Serine/threonine-protein kinase D2 (Homo sapiens) (UniProt Q9BZL6).
T2 sequence (whole entry): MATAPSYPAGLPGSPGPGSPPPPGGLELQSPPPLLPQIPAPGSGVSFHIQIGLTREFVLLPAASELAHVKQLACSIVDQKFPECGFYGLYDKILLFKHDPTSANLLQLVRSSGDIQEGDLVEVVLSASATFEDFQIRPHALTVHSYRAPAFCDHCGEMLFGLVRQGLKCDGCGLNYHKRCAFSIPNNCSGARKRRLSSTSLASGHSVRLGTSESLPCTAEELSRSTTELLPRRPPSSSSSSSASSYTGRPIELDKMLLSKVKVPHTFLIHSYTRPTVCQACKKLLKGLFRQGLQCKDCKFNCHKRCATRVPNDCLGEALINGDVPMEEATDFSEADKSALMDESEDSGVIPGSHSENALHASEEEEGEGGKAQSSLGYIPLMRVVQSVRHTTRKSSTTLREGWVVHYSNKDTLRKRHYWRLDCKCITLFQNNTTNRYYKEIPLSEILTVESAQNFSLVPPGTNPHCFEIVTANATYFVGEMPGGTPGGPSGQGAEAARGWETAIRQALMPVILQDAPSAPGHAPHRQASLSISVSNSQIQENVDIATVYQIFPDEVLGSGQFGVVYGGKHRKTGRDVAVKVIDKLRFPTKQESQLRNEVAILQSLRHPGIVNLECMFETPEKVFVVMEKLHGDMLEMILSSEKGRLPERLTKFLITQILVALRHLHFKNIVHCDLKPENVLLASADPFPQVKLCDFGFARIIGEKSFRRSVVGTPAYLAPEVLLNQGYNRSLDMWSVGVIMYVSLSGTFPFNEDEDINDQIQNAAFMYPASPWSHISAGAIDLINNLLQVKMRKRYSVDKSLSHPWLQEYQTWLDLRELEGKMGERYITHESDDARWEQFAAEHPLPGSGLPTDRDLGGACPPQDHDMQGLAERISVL
Description: Selectivity interaction (ActivX KiNativ screen (kinase selectivity in THP-1 cell lysates)) EUB0000639a PRKD2. It counts as subcellular. The following applies: lysate, at 0.01 µM.

In test [8] the target is Muscarinic acetylcholine receptor M2 (Homo sapiens, UniProt P08172). Description: Selectivity interaction (Muscarinic M2 Calcium flux assay, agonist and antagonist mode ) EUB0000877a CHRM2. A general note: A change in cytosolic calcium serves as a functional read-out for many receptors and channels.
Test [9] has as its target Dual specificity protein kinase CLK4 (Homo sapiens, UniProt Q9HAZ1). The test is described as follows: Selectivity interaction (KinomeScan (DiscoverX)) EUB0000595a CLK4. The settings on record: at 10 µM.
Test [10] deals with T3, Serine/threonine-protein kinase Nek9 (Homo sapiens) (UniProt Q8TD19).
T3 sequence (whole entry): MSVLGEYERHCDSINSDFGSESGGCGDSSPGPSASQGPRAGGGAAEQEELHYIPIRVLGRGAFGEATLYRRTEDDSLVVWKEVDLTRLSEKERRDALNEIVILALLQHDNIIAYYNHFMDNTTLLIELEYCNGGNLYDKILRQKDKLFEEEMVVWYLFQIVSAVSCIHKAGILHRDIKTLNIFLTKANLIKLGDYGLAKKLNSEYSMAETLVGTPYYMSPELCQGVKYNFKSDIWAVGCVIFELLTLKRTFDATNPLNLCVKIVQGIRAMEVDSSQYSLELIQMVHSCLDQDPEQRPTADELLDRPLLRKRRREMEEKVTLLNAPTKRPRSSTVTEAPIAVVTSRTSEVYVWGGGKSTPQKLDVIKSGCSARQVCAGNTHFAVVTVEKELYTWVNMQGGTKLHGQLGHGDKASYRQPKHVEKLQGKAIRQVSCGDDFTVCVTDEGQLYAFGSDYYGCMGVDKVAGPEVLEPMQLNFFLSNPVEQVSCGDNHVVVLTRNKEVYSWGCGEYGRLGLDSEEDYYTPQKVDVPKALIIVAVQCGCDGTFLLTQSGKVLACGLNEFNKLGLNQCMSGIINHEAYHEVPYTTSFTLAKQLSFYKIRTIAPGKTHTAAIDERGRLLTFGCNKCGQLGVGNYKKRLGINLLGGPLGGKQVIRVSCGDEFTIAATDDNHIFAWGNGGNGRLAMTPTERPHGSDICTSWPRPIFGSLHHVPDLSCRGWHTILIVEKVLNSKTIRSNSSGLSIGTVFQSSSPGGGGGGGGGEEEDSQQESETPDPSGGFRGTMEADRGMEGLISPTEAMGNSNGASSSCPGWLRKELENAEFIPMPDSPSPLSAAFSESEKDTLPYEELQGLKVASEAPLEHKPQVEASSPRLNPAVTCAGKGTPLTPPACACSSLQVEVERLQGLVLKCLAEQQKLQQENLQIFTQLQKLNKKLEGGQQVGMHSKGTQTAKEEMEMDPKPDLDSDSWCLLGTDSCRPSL
Description: Selectivity interaction (ActivX KiNativ screen (ex vivo kinase selectivity in human PBMCs)) EUB0001619a NEK9. It counts as cell-based. The following applies: PBMC, at 1 µM.

Test [11] addresses Glycogen synthase kinase-3 beta (Homo sapiens, UniProt P49841). The test is described as follows: Selectivity interaction (Kinase panel (KiNativ target engagement assay in Jurkat cells)) EUB0001635a GSK3B. It counts as cell-based. The following applies: Selectivity number of off-targets 0.0, Selectivity number of targets 233.0, Source Knowledge https://www.sciencedirect.com/science/article/pii/S2451945619300674?via%3Dihub, at 1 µM.

Sequence of Muscarinic acetylcholine receptor M2 (P08172 whole entry): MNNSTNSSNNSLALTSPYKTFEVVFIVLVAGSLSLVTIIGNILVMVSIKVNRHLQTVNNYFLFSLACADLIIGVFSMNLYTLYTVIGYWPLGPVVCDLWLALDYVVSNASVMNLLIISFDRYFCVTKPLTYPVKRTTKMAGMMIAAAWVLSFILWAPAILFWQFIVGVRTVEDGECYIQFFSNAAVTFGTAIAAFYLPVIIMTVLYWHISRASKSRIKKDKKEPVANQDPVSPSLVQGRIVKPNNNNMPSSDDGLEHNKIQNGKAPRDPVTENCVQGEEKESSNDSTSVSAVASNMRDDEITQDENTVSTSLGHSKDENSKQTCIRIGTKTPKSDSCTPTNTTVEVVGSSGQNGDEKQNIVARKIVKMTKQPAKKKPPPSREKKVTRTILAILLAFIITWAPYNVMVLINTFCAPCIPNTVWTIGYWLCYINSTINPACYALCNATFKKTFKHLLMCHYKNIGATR
Sequence of Protein-tyrosine kinase 6 (Q13882 whole entry): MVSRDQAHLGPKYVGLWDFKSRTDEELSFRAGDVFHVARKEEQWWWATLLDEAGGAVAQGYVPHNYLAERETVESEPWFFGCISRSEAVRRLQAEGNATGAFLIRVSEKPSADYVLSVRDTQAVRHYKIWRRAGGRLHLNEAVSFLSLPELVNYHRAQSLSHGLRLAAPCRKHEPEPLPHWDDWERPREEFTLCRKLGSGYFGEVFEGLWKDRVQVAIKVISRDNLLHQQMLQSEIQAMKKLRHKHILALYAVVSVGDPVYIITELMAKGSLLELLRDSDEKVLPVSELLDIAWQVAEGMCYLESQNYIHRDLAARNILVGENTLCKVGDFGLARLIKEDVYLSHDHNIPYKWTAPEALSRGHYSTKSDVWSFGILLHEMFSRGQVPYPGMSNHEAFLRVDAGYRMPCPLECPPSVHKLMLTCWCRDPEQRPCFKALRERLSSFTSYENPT
Sequence of Mitogen-activated protein kinase kinase kinase 4 (Homo sapiens) (Q9Y6R4 whole entry): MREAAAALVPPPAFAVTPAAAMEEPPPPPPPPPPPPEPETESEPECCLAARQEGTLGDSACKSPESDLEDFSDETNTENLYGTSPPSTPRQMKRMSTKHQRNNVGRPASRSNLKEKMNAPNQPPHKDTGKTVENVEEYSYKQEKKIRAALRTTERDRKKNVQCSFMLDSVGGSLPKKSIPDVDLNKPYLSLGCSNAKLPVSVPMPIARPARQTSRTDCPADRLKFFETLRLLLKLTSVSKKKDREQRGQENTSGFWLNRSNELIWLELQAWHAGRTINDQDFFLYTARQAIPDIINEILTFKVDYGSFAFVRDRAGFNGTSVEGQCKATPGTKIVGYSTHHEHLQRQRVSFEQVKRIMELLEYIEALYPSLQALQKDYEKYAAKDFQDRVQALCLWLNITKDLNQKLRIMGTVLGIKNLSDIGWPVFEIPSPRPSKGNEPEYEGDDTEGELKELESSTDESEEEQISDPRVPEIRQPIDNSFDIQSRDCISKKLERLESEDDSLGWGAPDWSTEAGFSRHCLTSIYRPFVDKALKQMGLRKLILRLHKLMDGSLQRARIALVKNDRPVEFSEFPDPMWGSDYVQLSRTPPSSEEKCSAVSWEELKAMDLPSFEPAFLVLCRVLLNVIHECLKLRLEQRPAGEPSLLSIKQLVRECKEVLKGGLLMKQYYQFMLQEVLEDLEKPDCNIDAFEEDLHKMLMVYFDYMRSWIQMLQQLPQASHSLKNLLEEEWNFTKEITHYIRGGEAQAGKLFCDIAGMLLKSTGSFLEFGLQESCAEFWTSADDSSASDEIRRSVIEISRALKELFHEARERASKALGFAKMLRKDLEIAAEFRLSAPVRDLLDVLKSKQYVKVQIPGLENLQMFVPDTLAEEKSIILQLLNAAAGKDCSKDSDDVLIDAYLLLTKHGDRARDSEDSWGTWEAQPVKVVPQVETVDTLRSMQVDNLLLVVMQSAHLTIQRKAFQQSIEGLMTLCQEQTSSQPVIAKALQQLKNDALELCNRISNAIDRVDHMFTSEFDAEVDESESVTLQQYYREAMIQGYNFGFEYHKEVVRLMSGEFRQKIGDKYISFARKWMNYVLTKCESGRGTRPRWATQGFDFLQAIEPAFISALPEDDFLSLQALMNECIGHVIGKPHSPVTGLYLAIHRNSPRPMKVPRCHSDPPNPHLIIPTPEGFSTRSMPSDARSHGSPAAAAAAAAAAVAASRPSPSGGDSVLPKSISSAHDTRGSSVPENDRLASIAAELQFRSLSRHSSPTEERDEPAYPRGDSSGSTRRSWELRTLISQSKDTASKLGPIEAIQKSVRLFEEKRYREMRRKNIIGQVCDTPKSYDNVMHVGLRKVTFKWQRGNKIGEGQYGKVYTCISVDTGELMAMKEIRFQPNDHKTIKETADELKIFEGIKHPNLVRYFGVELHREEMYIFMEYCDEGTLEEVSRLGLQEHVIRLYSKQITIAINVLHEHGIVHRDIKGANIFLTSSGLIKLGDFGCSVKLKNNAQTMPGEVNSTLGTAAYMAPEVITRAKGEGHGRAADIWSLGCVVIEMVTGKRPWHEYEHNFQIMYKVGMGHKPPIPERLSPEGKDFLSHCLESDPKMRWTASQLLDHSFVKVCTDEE
Sequence of Tyrosine-protein kinase JAK2 (O60674 whole entry): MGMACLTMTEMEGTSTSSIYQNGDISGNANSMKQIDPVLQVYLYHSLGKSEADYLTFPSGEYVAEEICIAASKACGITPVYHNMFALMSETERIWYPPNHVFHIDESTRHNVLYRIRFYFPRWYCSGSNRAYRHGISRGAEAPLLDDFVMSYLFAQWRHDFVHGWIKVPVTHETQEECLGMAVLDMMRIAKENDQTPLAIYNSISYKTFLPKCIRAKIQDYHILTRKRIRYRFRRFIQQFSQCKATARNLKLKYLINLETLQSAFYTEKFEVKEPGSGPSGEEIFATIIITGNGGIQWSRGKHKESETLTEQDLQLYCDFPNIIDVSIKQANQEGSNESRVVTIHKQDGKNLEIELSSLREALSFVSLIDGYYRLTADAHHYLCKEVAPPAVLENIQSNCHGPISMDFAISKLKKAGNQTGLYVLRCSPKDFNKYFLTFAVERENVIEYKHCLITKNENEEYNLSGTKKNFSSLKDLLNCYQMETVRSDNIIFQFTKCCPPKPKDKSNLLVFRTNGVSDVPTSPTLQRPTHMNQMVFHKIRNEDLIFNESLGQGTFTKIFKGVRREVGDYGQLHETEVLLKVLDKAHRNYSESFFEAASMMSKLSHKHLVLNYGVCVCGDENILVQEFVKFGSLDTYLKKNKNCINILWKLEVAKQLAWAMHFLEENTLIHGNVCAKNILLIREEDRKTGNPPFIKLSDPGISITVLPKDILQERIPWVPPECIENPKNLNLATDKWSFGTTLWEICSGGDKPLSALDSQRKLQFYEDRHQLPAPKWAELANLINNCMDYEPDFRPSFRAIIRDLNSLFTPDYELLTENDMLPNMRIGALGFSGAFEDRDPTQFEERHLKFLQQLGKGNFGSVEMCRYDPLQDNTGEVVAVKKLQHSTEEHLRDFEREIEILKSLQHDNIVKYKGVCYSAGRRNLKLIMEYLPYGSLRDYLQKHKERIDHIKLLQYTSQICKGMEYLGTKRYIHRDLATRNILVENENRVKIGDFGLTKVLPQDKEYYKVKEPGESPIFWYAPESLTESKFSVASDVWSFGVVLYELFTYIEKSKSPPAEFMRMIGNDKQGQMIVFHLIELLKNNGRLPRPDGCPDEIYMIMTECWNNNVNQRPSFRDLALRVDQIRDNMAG
Sequence of Ribosomal protein S6 kinase alpha-3 (P51812 whole entry): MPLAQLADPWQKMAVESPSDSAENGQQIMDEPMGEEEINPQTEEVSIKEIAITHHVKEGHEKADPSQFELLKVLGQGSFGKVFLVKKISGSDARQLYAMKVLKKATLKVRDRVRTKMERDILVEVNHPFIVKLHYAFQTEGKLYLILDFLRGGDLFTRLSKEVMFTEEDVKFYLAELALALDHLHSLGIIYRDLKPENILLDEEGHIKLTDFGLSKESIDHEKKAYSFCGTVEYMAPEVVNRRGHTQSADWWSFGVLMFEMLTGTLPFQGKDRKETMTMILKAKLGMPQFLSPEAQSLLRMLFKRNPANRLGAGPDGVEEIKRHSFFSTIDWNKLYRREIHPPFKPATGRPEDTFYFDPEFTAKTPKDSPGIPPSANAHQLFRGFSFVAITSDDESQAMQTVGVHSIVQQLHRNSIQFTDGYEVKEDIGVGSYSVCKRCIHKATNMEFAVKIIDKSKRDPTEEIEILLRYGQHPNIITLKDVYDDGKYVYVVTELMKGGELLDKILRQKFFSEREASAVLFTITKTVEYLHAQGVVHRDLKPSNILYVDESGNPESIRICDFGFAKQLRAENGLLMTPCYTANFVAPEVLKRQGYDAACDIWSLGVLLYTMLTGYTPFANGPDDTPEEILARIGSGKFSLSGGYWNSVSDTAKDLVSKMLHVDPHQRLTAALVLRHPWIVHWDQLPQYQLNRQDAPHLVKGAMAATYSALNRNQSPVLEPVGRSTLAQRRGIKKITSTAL
Sequence of Dual specificity protein kinase CLK4 (Q9HAZ1 whole entry, looked up): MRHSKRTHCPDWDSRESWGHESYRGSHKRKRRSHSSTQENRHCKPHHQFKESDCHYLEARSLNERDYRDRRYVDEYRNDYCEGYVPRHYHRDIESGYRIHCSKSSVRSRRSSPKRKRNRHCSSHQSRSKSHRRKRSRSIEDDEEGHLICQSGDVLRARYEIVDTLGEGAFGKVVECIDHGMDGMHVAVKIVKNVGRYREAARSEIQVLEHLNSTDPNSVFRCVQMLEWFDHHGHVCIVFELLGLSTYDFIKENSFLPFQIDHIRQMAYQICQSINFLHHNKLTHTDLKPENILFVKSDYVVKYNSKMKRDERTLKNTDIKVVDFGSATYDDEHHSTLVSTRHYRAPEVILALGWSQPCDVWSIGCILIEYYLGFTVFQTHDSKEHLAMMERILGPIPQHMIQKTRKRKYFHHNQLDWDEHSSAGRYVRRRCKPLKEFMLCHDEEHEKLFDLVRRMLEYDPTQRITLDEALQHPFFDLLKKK

For orientation: IC50 means the concentration that inhibits the measured activity by half. The molecule `CCc1cc(Nc2nccc(-c3c(-c4ccc(OC)c(C(=O)Nc5c(F)cccc5F)c4)nc4ccccn34)n2)c(OC)cc1N1CCC(N2CCN(S(C)(=O)=O)CC2)CC1` came in with an IC50 in test [1] of 0.357 µM.

As to `CCN(CC)CCCCNc1ncc2cc(-c3cc(OC)cc(OC)c3)c(NC(=O)NC(C)(C)C)nc2n1`, in test [2], the % of control came out at 100%. `CN(C)CCOc1ccc(-c2nc(-c3ccncc3)c(-c3ccc4c(c3)CC/C4=N\O)[nH]2)cc1`: the % of control in test [3] amounted to 87%. Turning to `Cc1cnc(Nc2ccc(F)cc2Cl)nc1-c1c[nH]c(C(=O)N[C@H](CO)c2cccc(Cl)c2)c1`, the % of inhibition in test [4] was 6%.

Regarding `CNC(=O)Nc1ccc(-c2nc(N3CC4CCC(C3)O4)c3cnn(C4CCC5(CC4)OCCO5)c3n2)cc1`, the % of control in test [5] was found to be 86%. As for `CC[C@@H]1[C@H](F)C(=O)N[C@@H]1COc1nccc2cc(C(N)=O)c(OC)cc12` [ZIMLOVISERTIB], the results for the % of inhibition in test [6] and in test [7] were 17.9% and -7.2%, respectively. `CCC(=O)N1CC[C@H](Nc2ncnc3c2CN(c2cnc(OC)c(C(F)(F)F)c2)CC3)C1` [LENIOLISIB]: the IC50 in [8] is greater than 30 µM. `COCC(=O)NC/C=C/c1ccc2ncnc(Nc3ccc(Oc4ccc(C)nc4)c(C)c3)c2c1` [CP-724714]: the % of control in test [9] is 100%.

Regarding `N#Cc1cccc(-c2c[nH]c3ncnc(N4CCOCC4)c23)c1`, the % of inhibition in [10] worked out at 3%. Take `C=CC(=O)Nc1ccc(C(=O)Nc2[nH]nc3c2CN(C(=O)N[C@H](CN(C)C)c2ccccc2)C3(C)C)cc1`: the % of engagement in test [11] was -4.3%.
